Measurements: patent publication US9994528B2, “Certain amino-pyridines and amino-triazines, compositions thereof, and methods for their use” (Cytokinetics, Inc., priority 2010, dated 2018)

system: rabbit skeletal myofibrils (approximately 90% fast fibers); test: Activation of fast skeletal myofibrils (PUMA coupled-enzyme ATPase assay); format: biochemical; conditions: AC1.4 = concentration at which the compound increased the enzymatic activity by 40%; myofibril suspension at calcium level pCa25; PM12 buffer pH 6.8
Protocol: Preparation of fast skeletal myofibrils. Rabbit skeletal myofibrils were prepared based upon the method of Herrmann et al. (Biochem. 32(28):7255-7263(1993). Myofibrils were prepared from rabbit psoas muscle purchased from Pel-Freez Biologicals (Arkansas) within 2 days of ordering, stored on ice. Minced muscle was homogenized in 10 volumes of ice-cold “standard” buffer (50 mM Tris, pH 7.4, 0.1 M potassium acetate, 5 mM KCl, 2 mM DTT, 0.2 mM PMSF, 10 μM leupeptin, 5 μM pepstatin, and 0.5 mM sodium azide) containing 5 mM EDTA and 0.5% Triton X-100 using an Omni-Macro homogenizer. Myofibrils were recovered by low speed centrifugation (3000 rpm for 10 minutes) and washed 2 times in the Triton X-100 containing buffer to ensure removal of cellular membrane. Following the Triton washes, myofibrils were washed 3 times in “standard” buffer containing 2 mM magnesium acetate. A final wash in assay buffer (12 mM PIPES, pH 6.8, 60 mM KCl, 1 mM DTT) was performed and brought to 10% sucrose for flash freezing in liquid nitrogen and storage at −80° C.
Activation of Fast Skeletal Myofibrils. Fast fiber activators were identified by measuring the enzymatic activity of muscle myofibril preparations using the proprietary PUMA™ (see, e.g., U.S. Pat. Nos. 6,410,254, 6,743,599, 7,202,051, and 7,378,254) assay system. Myofibril preparations consisted of rabbit skeletal muscle (approximately 90% fast fibers) that had been mechanically homogenized and washed with a detergent (triton X-100) to remove cellular membranes. This preparation retained all of the sarcomeric components in a native conformation and the enzymatic activity was still regulated by calcium. Compounds were tested using a myofibril suspension and a level of calcium sufficient to increase enzymatic activity of the myofibrils to 25% of their maximal rate (termed pCa25). Enzymatic activity was tracked via a pyruvate kinase and lactate dehydrogenase-coupled enzyme system. This assay regenerates myosin-produced ADP into ATP by oxidizing NADH, producing an absorbance change at 340 nm. The buffering system was 12 mM Pipes, 2 mM MgCl2, 1 mM DTT at pH 6.8 (PM12 buffer).
Using procedures similar to those described herein, utilizing reagents and intermediates commercially available (e.g., Sigma-Aldrich,) or readily synthesized by one of skill in the art, the compounds in Table 2 were synthesized, characterized and tested. AC1.4 values were determined according to the procedure described in Example 25, and the reported median AC1.4 values are as follows: A=<1 uM; B=1-10 uM; C=10-20 uM; D=>20 uM.

Row | Compound | Mean AC1.4
1 | CC(C)(Nc1ncc(-c2cc(C#N)ccc2F)nn1)c1cccc(C(F)F)n1 [3-[3-({1-[6-(difluoromethyl)(2-pyridyl)]-isopropyl}amino)(1,2,4-triazin-6-yl)]-4-fluorobenzenecarbonitrile] | B (B=1-10 uM)
2 | N#Cc1cccc(-c2cnc(NC[C@]3(c4ncccc4Cl)C[C@H](F)C3)nn2)c1 [3-[3-({[1-(3-chloro(2-pyridyl))-3-fluorocyclobutyl]methyl}amino)-1,2,4-triazin-6-yl]benzenecarbonitrile] | B (B=1-10 uM)
3 | NC(=O)c1ccc(F)c(-c2cnc(NC3(c4cccc(OC(F)F)n4)CCC3)nn2)c1 [3-[3-({[6-(difluoromethoxy)(2-pyridyl)]cyclobulyl}amino)(1,2,4-triazin-6-yl)]-4-fluorobenzamide] | A (A=<1 uM)
4 | CC(Nc1ncc(-c2cc(C(N)=O)ccc2F)nn1)c1cccc(OC(F)F)n1 (stereo not drawn) [3-[3-({[6-(difluoromethoxy)(2-pyridyl)]ethyl}amino)(1,2,4-triazin-6-yl)]-4-fluorobenzamide] | C (C=10-20 uM)
5 | NC(=O)c1ccc(F)c(-c2cnc(NCc3cccc(OC(F)F)n3)nn2)c1 [3-[3-({[6-(difluoromethoxy)(2-pyridyl)]methyl}amino)(1,2,4-triazin-6-yl)]-4-fluorobenzamide] | D (D=>20 uM)
6 | NC(=O)c1cccc(-c2ncc(NCC3(c4ccc(F)cc4)CCC3)nn2)c1 [3-[6-({[(4-fluorophenyl)cyclobutyl]methyl}amino 1,2,4-triazin-3-yl]benzamide] | A (A=<1 uM)
7 | CC(C)(Nc1ncc(-c2ccc(C(N)=O)cc2F)nn1)c1ncccc1F [3-fluoro-4-(3-{[1-(3-fluoro(2-pyridyl))-isopropyl]amino}(1,2,4-triazin-6-yl))benzamide] | D (D=>20 uM)
8 | CC(C)(C)Nc1ncc(-c2cc(C(N)=O)ccc2F)nn1 [3-{3-[(tert-butyl)amino](1,2(4-triazin-6-yl)}-4-fluorobenzamide] | D (D=>20 uM)
9 | NC(=O)c1cccc(-c2ccc(NC(=O)Cc3ccc(F)cc3)nc2)c1 [3-{6-[2-(4-fluorophenyl)acetylamino]-3-pyridyl}benzamide] | D (D=>20 uM)
10 | CC(C)(CNc1ccc(-c2ccc(C(N)=O)cc2)cn1)c1ccc(F)cc1 [4-(6-{[2-(4-fluorophenyl)-2-methylpropyl]amino}-3-pyridyl)benzamide] | B (B=1-10 uM)
11 | CC(C)(Nc1ncc(-c2cc(C(=O)O)ccc2F)nn1)c1ncccc1F [4-fluoro-3-(3-{[1-(3-fluoro(2-pyridyl))-isopropyl]amino}(1,2,4-triazin-6-yl))benzoic acid] | C (C=10-20 uM)
12 | Cc1ccc(F)c(C(C)(C)Nc2ncc(-c3cc(C(N)=O)ccc3F)nn2)n1 [4-fluoro-3-(3-{[1-(3-fluoro-6-methyl(2-pyridyl))-isopropyl]amino}(1,2,4-triazin-6-yl))benzamide] | B (B=1-10 uM)
13 | CC(C)(Nc1ncc(-c2cc(C(N)=O)ccc2F)nn1)c1ccc(F)cc1 [4-fluoro-3-(3-{[1-(4-fluorophenyl)-isopropyl]amino}(1,2,4-triazin-6-yl))benzamide] | A (A=<1 uM)
14 | Cc1nc(C(C)(C)Nc2ncc(-c3cc(C(N)=O)ccc3F)nn2)ccc1F [4-fluoro-3-(3-{[1-(5-fluoro-6-methyl(2-pyridyl))-isopropyl]amino}(1,2,4-triazin-6-yl))benzamide] | B (B=1-10 uM)
15 | Cc1cccc(C(C)(C)Nc2ncc(-c3cc(C(N)=O)ccc3F)nn2)n1 [4-fluoro-3-(3-{[1-methyl-1-(6-methyl(2-pyridyl))ethyl]amino}(1,2,4-triazin-6-yl))benzamide] | C (C=10-20 uM)
16 | NC(=O)c1ccc(F)c(-c2cnc(NC3(c4ccc(F)cc4)CCC3)nn2)c1 [4-fluoro-3-(3-{[(4-fluorophenyl)cyclobutyl]amino}(1,2,4-triazin-6-yl))benzamide] | B (B=1-10 uM)
17 | CC(C)(Nc1ncc(-c2cc(C(N)=O)ccc2F)nn1)c1cccc(S(C)(=O)=O)c1 [4-fluoro-3-[3-({1-methyl-1-[3-(methylsulfonyl)phenyl]ethyl}amino)(1,2,4-triazin-6-yl)]benzamide] | D (D=>20 uM)

The next lines start with the values.

Row | Mean AC1.4 | Compound
18 | A (A=<1 uM) | NC(=O)c1ccc(F)c(-c2cnc(NCC3(c4ncccc4Cl)CC(F)(F)C3)nn2)c1 [3-[3-({[1-(3-chloro(2-pyridyl))-3,3-difluorocyclobutyl]methyl}amino)(1,2,4-triazin-6-yl)]-4-fluorobenzamide]
19 | A (A=<1 uM) | NC(=O)c1ccc(F)c(-c2cnc(NC[C@]3(c4ncccc4Cl)C[C@H](F)C3)nn2)c1 [3-[3-({[1-(3-chloro(2-pyridyl))-3-fluorocyclobutyl]methyl}amino)(1,2,4-triazin-6-yl)]-4-fluorobenzamide]
20 | A (A=<1 uM) | NC(=O)c1cccc(-c2cnc(NC[C@]3(c4ncccc4Cl)C[C@H](F)C3)nn2)c1 [3-[3-({[1-(3-chloro(2-pyridyl))-3-fluorocyclobutyl]methyl}amino)-1,2,4-triazin-6-yl]benzamide]
21 | A (A=<1 uM) | NC(=O)c1ccc(O)c(-c2cnc(NC[C@]3(c4ncccc4F)C[C@H](F)C3)nn2)c1 [3-[3-({[3-fluoro-1-(3-fluoro(2-pyridyl))cyclobulyl]methyl}amino)(1,2,4-triazin-6-yl)]-4-hydroxybenzamide]
22 | A (A=<1 uM) | NC(=O)c1cccc(-c2cnc(NC[C@]3(c4ncccc4F)C[C@H](F)C3)nn2)c1 [3-[3-({[3-fluoro-1-(3-fluoro(2-pyridyl))cyclobutyl]methyl}amino)-1,2,4-triazin-6-yl]benzamide]
23 | A (A=<1 uM) | NC(=O)c1ccc(F)c(-c2cnc(NCC3(c4ncccc4Cl)CCC3)nn2)c1 [3-[3-({[(3-chloro(2-pyridyl))cyclobutyl]methyl}amino)(1,2,4-triazin-6-yl)]-4-fluorobenzamide]
24 | A (A=<1 uM) | O=C(O)c1ccc(F)c(-c2cnc(NCC3(c4ncccc4Cl)CCC3)nn2)c1 [3-[3-({[(3-chloro(2-pyridyl))cyclobutyl]methyl}amino)(1,2,4-triazin-6-yl)]-4-fluorobenzoic acid]
25 | B (B=1-10 uM) | NC(=O)c1cccc(-c2cnc(NCC3(c4ncccc4F)CCC3)nn2)c1 [3-[3-({[(3-fluoro-2-pyridyl)cyclobutyl]methyl}amino)-1,2,4-triazin-6-yl]benzamide]
26 | B (B=1-10 uM) | NC(=O)c1cccc(-c2cnc(NC[C@]3(c4ncccc4F)C[C@H](F)C3)c(F)c2)c1 [3-[5-fluoro-6-({[3-fluoro-1-(3-fluoro(2-pyridyl))cyclobutyl]methyl}amino)-3-pyridyl]benzamide]
27 | B (B=1-10 uM) | CC(C)(Nc1ncc(-c2cc(C(N)=O)ccc2F)nn1)c1ncccc1F [4-fluoro-3-(3-{[1-(3-fluoro(2-pyridyl))-isopropyl]amino}(1,2,4-triazin-6-yl))benzamide]
28 | B (B=1-10 uM) | NC(=O)c1ccc(F)c(-c2cnc(NCC3(c4ccccn4)CCC3)nn2)c1 [4-fluoro-3-(3-{[(2-pyridylcyclobutyl)methyl]amino}(1,2,4-triazin-6-yl))benzamide]
29 | B (B=1-10 uM) | NC(=O)c1ccc(F)c(-c2cnc(NC3(c4ncccc4F)CCC3)nn2)c1 [4-fluoro-3-(3-{[(3-fluoro(2-pyridyl))cyclobutyl]amino}(1,2,4-triazin-6-yl))benzamide]
30 | C (C=10-20 uM) | CC(Nc1ncc(-c2cc(C(N)=O)ccc2F)nn1)c1ncccc1F (stereo not drawn) [4-fluoro-3-(3-{[(3-fluoro(2-pyridyl))ethyl]amino}(1,2,4-triazin-6-yl))benzamide]
31 | A (A=<1 uM) | NC(=O)c1ccc(F)c(-c2cnc(NC[C@]3(c4ncccc4F)C[C@H](F)C3)nn2)c1 [4-fluoro-3-[3-({[3-fluoro-1-(3-fluoro(2-pyridyl))cyclobutyl]methyl}amino)(1,2,4-triazin-6-yl)]benzamide]
32 | B (B=1-10 uM) | O=C(O)c1ccc(F)c(-c2cnc(NCC3(c4ncccc4F)CCC3)nn2)c1 [4-fluoro-3-[3-({[(3-fluoro(2-pyridyl))cyclobulyl]methyl}amino)(1,2,4-triazin-6-yl)]benzoic acid]
33 | A (A=<1 uM) | NC(=O)c1ccc(F)c(-c2cnc(NCC3(c4ncccc4F)CCC3)nn2)c1 [4-fluoro-3-[3-({[(3-fluoro(2-pyridyl))cyclobutyl]methyl}amino)(1,2,4-triazin-6-yl)]benzamide]
